Test results taken from ChEMBL document CHEMBL4699464, “Talascortenes A-G, Highly Oxygenated Diterpenoid Acids from the Sea-Anemone-Derived Endozoic Fungus Talaromyces scorteus AS-242” (2020).
Converted amounts (≈) assume the structure as drawn.

How the values were obtained:
Type in all cases: functional
Vibrio harveyi = assay: Antimicrobial activity against Vibrio harveyi QDIO-7 by serial dilution technique
Escherichia coli = assay: Antimicrobial activity against Escherichia coli EMBLC-1 by serial dilution technique
Gaeumannomyces graminis = assay: Antimicrobial activity against Gaeumannomyces graminis QDAU-21 by serial dilution technique
Pseudomonas aeruginosa = assay: Antimicrobial activity against Pseudomonas aeruginosa QDIO-4 by serial dilution technique
Fusarium oxysporum = assay: Antimicrobial activity against Fusarium oxysporum QDAU-8 by serial dilution technique
Ceratobasidium cereale = assay: Antimicrobial activity against Rhizoctonia cerealis QDAU-20 by serial dilution technique
Edwardsiella tarda = assay: Antimicrobial activity against Edwardsiella tarda QDIO-9 by serial dilution technique
Vibrio parahaemolyticus = assay: Antimicrobial activity against Vibrio parahaemolyticus QDIO-8 by serial dilution technique
[1] = test system: Colletotrichum gloeosporioides; assay: Antimicrobial activity against Colletotrichum gloeosporioides QDAU-2 by serial dilution technique
Micrococcus luteus = assay: Antimicrobial activity against Micrococcus luteus QDIO-3 by serial dilution technique
Aeromonas hydrophila = assay: Antimicrobial activity against Aeromonas hydrophila QDIO-1 by serial dilution technique

SMILES	MIC (Vibrio harveyi)	MIC (Escherichia coli)	MIC (Gaeumannomyces graminis)	MIC (Pseudomonas aeruginosa)	MIC (Fusarium oxysporum)	MIC (Ceratobasidium cereale)	MIC (Edwardsiella tarda)	MIC (Vibrio parahaemolyticus)	MIC [1]	MIC (Micrococcus luteus)	MIC (Aeromonas hydrophila)
C=C[C@]1(C)CCC2=C(CC[C@@]3(O)[C@@](C)(C(=O)O)[C@H](O)CC[C@]23C)[C@H]1O	> 32 µg/mL	8 µg/mL (≈ 22.8 µM)	> 32 µg/mL	> 32 µg/mL	> 32 µg/mL	> 32 µg/mL	> 32 µg/mL	> 32 µg/mL	> 32 µg/mL	> 32 µg/mL	> 32 µg/mL
C=C[C@]1(C)CCC2=C(CC[C@@]3(O)[C@@](C)(C(=O)O)CCC[C@]23C)[C@H]1OC	> 32 µg/mL	1 µg/mL (≈ 2.87 µM)	> 32 µg/mL	> 32 µg/mL	> 32 µg/mL	> 32 µg/mL	> 32 µg/mL	> 32 µg/mL	2 µg/mL (≈ 5.74 µM)	8 µg/mL (≈ 23 µM)	> 32 µg/mL
C=C[C@]1(C)CCC2=C(CC[C@]3(O)[C@@](C)(C(=O)O)CCC[C@]23C)[C@H]1O	8 µg/mL (≈ 23.9 µM)	16 µg/mL (≈ 47.8 µM)	> 32 µg/mL	> 32 µg/mL	> 32 µg/mL	> 32 µg/mL	> 32 µg/mL	> 32 µg/mL	> 32 µg/mL	> 32 µg/mL	16 µg/mL (≈ 47.8 µM)
C[C@]1(O)C[C@]23CC[C@H]1C[C@@H]2[C@@]1(C)CCC[C@](C)(C(=O)O)[C@]1(O)CC3	> 32 µg/mL	32 µg/mL (≈ 95.1 µM)	4 µg/mL (≈ 11.9 µM)	16 µg/mL (≈ 47.6 µM)	16 µg/mL (≈ 47.6 µM)	8 µg/mL (≈ 23.8 µM)	16 µg/mL (≈ 47.6 µM)	> 32 µg/mL	> 32 µg/mL	2 µg/mL (≈ 5.94 µM)	> 32 µg/mL
O=C(N[C@H](CO)[C@H](O)c1ccc([N+](=O)[O-])cc1)C(Cl)Cl [CHLORAMPHENICOL]	2 µg/mL (≈ 6.19 µM)	1 µg/mL (≈ 3.09 µM)	–	2 µg/mL (≈ 6.19 µM)	–	–	0.5 µg/mL (≈ 1.55 µM)	0.5 µg/mL (≈ 1.55 µM)	–	1 µg/mL (≈ 3.09 µM)	4 µg/mL (≈ 12.4 µM)
C=C[C@]1(C)CC[C@@]2(O)[C@](O)(CC[C@]3(O)[C@]2(C)CCC[C@]3(C)C(=O)O)C1	> 32 µg/mL	8 µg/mL (≈ 22.7 µM)	> 32 µg/mL	> 32 µg/mL	> 32 µg/mL	> 32 µg/mL	> 32 µg/mL	> 32 µg/mL	> 32 µg/mL	> 32 µg/mL	> 32 µg/mL
C[C@@H]1[C@H](O)[C@@H](C)/C=C/C=C/C=C/C=C/C=C/C=C/C=C/[C@H](O[C@@H]2O[C@H](C)[C@@H](O)[C@H](N)[C@@H]2O)C[C@@H]2O[C@](O)(C[C@@H](O)C[C@@H](O)[C@H](O)CC[C@@H](O)C[C@@H](O)CC(=O)O[C@H]1C)C[C@H](O)[C@H]2C(=O)O [AMPHOTERICIN B]	–	–	1 µg/mL (≈ 1.08 µM)	–	0.5 µg/mL (≈ 0.541 µM)	1 µg/mL (≈ 1.08 µM)	–	–	2 µg/mL (≈ 2.16 µM)	–	–
C=C1CC[C@]2(O)[C@](C)(CCC[C@]2(C)C(=O)O)[C@]1(O)CC/C(C)=C/CO	> 32 µg/mL	> 32 µg/mL	> 32 µg/mL	> 32 µg/mL	> 32 µg/mL	> 32 µg/mL	> 32 µg/mL	8 µg/mL (≈ 22.7 µM)	> 32 µg/mL	> 32 µg/mL	> 32 µg/mL
C=C[C@]1(C)CCC2=C(CC[C@@]3(O)[C@@](C)(C(=O)O)[C@H](O)CC[C@]23C)[C@@H]1OC	> 32 µg/mL	> 32 µg/mL	> 32 µg/mL	32 µg/mL (≈ 87.8 µM)	> 32 µg/mL	> 32 µg/mL	> 32 µg/mL	8 µg/mL (≈ 21.9 µM)	> 32 µg/mL	> 32 µg/mL	> 32 µg/mL
C=C[C@H]1[C@@H]2CC[C@@]3(O)[C@@](C)(C(=O)O)[C@H](O)CC[C@]3(C)[C@H]2CC[C@@]1(O)CCl	> 32 µg/mL	> 32 µg/mL	> 32 µg/mL	> 32 µg/mL	> 32 µg/mL	> 32 µg/mL	> 32 µg/mL	32 µg/mL (≈ 82.7 µM)	> 32 µg/mL	4 µg/mL (≈ 10.3 µM)	> 32 µg/mL
